From patent US8796256B2 (Janssen Pharmaceutica NV, priority 2010, dated 2014)

Molecular target: T1, ERR1 (also known as ERR-α or ERR-1) (Homo sapiens, UniProt P11474)
T1 sequence (P11474 193-421 limits assumed): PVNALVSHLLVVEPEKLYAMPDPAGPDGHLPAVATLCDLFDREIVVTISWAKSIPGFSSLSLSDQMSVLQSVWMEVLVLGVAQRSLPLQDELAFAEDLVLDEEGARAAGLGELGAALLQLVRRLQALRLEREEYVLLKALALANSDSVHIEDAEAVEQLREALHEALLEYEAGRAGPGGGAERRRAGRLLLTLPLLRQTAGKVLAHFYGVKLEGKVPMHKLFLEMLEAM
Experiment: TR-FRET assay (disruption of co-activator peptide binding to ERR1 LBD)
Format: biochemical
Conditions: 6 nM 6His-ERR1LBD, 6 nM GST-SRC-2 peptide; average of 3 independent experiments
Method in brief: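 His-tagged ERR1 ligand-binding domain and GST-labelled SRC-2 peptide, each 6 nM, equilibrated at 25° C for 4-18 h in Tris pH 8/Hepes/KCl/DTT/delipidated BSA buffer. Compound-induced loss of co-activator binding read as Eu cryptate→XL665 energy transfer; values from hyperbolic curve fits averaged over 3 independent runs.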

Row | SMILES | EC50 [nM]
1 | O=C(O)CN1C(=O)S/C(=C\c2cc3cnn(Cc4ccc(Cl)cc4C(F)(F)F)c3cc2F)C1=O [Compound 348, [(5Z)-5-({1-[4-Chloro-2-(trifluoromethyl)benzyl]-6-fluoro-1H-indazol-5-yl}methylidene)-2,4-dioxo-1,3-thiazolidin-3-yl]acetic acid] | 7
2 | O=C1S/C(=C\c2ccc3c(cnn3Cc3ccc(Cl)cc3C(F)(F)F)c2)C(=O)N1C1(C(=O)O)CCCC1 [Compound 233, 1-[(5Z)-5-({1-[4-Chloro-2-(trifluoromethyl)benzyl]-1H-indazol-5-yl}methylidene)-2,4-dioxo-1,3-thiazolidin-3-yl]cyclopentanecarboxylic acid] | 57
3 | O=C1S/C(=C\c2ccc3c(cnn3Cc3ccc(Cl)cc3C(F)(F)F)c2)C(=O)N1CCN1CCCC(F)C1 (centres unmarked) [Compound 74, (5Z)-5-({1-[4-Chloro-2-(trifluoromethyl)benzyl]-1H-indazol-5-yl}methylidene)-3-[2-(3-fluoropiperidin-1-yl)ethyl]-1,3-thiazolidine-2,4-dione] | 110
4 | CN1C[C@@H](O)[C@H](N2C(=O)S/C(=C\c3ccc4c(cnn4Cc4ccc(Cl)cc4C(F)(F)F)c3)C2=O)C1 (relative stereo) [Compound 318] | 24
5 | CN(C)CCN1C(=O)S/C(=C\c2ccc3c(cnn3Cc3ccc(C(F)(F)F)cc3C(F)(F)F)c2)C1=O [Compound 7, (5Z)-5-[(1-{[2,4-Bis(trifluoromethyl)-phenyl]methyl}-1 H-indazol-5-yl)methylidene]-3-[2-(dimethylamino)-ethyl]-1,3-thiazolidine-2,4-dione] | 33
6 | CC(C)N1C[C@@H](N2C(=O)S/C(=C\c3ccc4c(cnn4Cc4ccc(Cl)cc4C(F)(F)F)c3)C2=O)[C@@H](F)C1 (relative stereo) [Compound 325, (5Z)-5-({1-[4-Chloro-2-(trifluoromethyl)benzyl]-1H-indazol-5-yl}methylidene)-3-[cis-4-fluoro-1-(1-methylethyl)pyrrolidin-3-yl]-1,3-thiazolidine-2,4-dione] | 87
7 | CN(C)CCCN1C(=O)S/C(=C\c2ccc3c(ccn3Cc3ccc(C(F)(F)F)cc3C(F)(F)F)c2)C1=O [Compound 239, (5Z)-5-[(1-{[2,4-Bis(trifluoromethyl)phenyl]methyl}-1H-indol-5-yl)methylidene]-3-[3-(dimethylamino)-propyl]-1,3-thiazolidine-2,4-dione] | 100
8 | O=C(O)CN1C(=O)S/C(=C\c2ccc3c(c2)c(Br)nn3Cc2ccc(Cl)cc2C(F)(F)F)C1=O [Compound 407, [(5Z)-5-({3-Bromo-1-[4-chloro-2-(trifluoromethyl)benzyl]-1H-indazol-5-yl}methylidene)-2,4-dioxo-1,3-thiazolidin-3-yl]acetic acid] | 7
9 | COC(=O)C1(N2C(=O)S/C(=C\c3ccc4c(cnn4Cc4ccc(Cl)cc4C(F)(F)F)c3)C2=O)CCOCC1 [Compound 226, Methyl 4-[(5Z)-5-({1-[4-chloro-2-(trifluoromethyl)benzyl]-1H-indazol-5-yl}methylidene)-2,4-dioxo-1,3-thiazolidin-3-yl]tetrahydro-2H-pyran-4-carboxylate] | 30
10 | O=C1S/C(=C\c2ccc3c(cnn3Cc3ccc(Cl)cc3C(F)(F)F)c2)C(=O)N1Cc1nc[nH]n1 [Compound 90, (5Z)-5-({1-[4-Chloro-2-(trifluoromethyl)benzyl]-1H-indazol-5-yl}methylidene)-3-(1H-1,2,4-triazol-3-ylmethyl)-1,3-thiazolidine-2,4-dione] | 28
11 | O=C1S/C(=C\c2ccc3c(cnn3[C@@H]3CCc4cc(Cl)ccc43)c2)C(=O)N1CCN1CCCC1 [Compound 178, (5Z)-5-({1-[(1R)-5-Chloro-2,3-dihydro-1H-inden-1-yl]-1H-indazol-5-yl}methylidene)-3-(2-pyrrolidin-1-ylethyl)-1,3-thiazolidine-2,4-dione] | 9700
12 | O=C1S/C(=C\c2ccc3c(cnn3Cc3ccc(C(F)(F)F)cc3C(F)(F)F)c2)C(=O)N1C[C@H]1COCCN1 [Compound 196, (5Z)-5-({1-[2,4-Bis(trifluoromethyl)benzyl]-1H-indazol-5-yl}methylidene)-3-[(3S)-morpholin-3-ylmethyl]-1,3-thiazolidine-2,4-dione] | 50
13 | O=C(O)c1ccc(S(=O)(=O)NCCN2C(=O)S/C(=C\c3ccc4c(cnn4Cc4ccc(Cl)cc4C(F)(F)F)c3)C2=O)o1 [Compound 421, 5-({2-[(5Z)-5-({1-[4-Chloro-2-(trifluoromethyl)benzyl]-1H-indazol-5-yl}methylidene)-2,4-dioxo-1,3-thiazolidin-3-yl]ethyl}sulfamoyl)furan-2-carboxylic acid] | 34
14 | O=C1S/C(=C\c2ccc3c(cnn3Cc3ccc(Cl)cc3C(F)(F)F)c2)C(=O)N1C[C@@H]1CN(CCO)CCO1 [Compound 187, (5Z)-5-({1-[4-Chloro-2-(trifluoromethyl)benzyl]-1H-indazol-5-yl}methylidene)-3-{[(2S)-4-(2-hydroxyethyl)morpholin-2-yl]methyl}-1,3-thiazolidine-2,4-dione] | 27
15 | CN1CC[C@@H](N2C(=O)S/C(=C\c3ccc4c(cnn4Cc4ccc(Cl)cc4C(F)(F)F)c3)C2=O)[C@H](O)C1 (relative stereo) [Compound 275, (5Z)-5-({1-[4-Chloro-2-(trifluoromethyl)-benzyl]-1H-indazol-5-yl}methylidene)-3-[trans-3-hydroxy-1-methylpiperidin-4-yl]-1,3-thiazolidine-2,4-dione] | 23
16 | COC(=O)N1CCN(CCN2C(=O)S/C(=C\c3ccc4c(cnn4Cc4ccc(Cl)cc4C(F)(F)F)c3)C2=O)S1(=O)=O [Compound 339, Methyl 5-{2-[(5Z)-5-({1-[4-chloro-2-(trifluoromethyl)benzyl]-1H-indazol-5-yl}methylidene)-2,4-dioxo-1,3-thiazolidin-3-yl]ethyl}-1,2,5-thiadiazolidine-2-carboxylate 1,1-dioxide] | 106
17 | C[C@@H](CN1C(=O)S/C(=C\c2ccc3c(cnn3Cc3ccc(Cl)cc3C(F)(F)F)c2)C1=O)NS(C)(=O)=O [Compound 157, N-{(1S)-2-[(5Z)-5-({1-[4-Chloro-2-(trifluoromethyl)benzyl]-1H-indazol-5-yl}methylidene)-2,4-dioxo-1,3-thiazolidin-3-yl]-1-methylethyl} methanesulfonamide] | 23
18 | CN1C(=O)S/C(=C\c2ccc3c(cnn3Cc3ccc(Cl)cc3C(F)(F)F)c2)C1=O [Compound 127, (5Z)-5-({1-[4-Chloro-2-(trifluoromethyl)-benzyl]-1H-indazol-5-yl}methylidene)-3-methyl-1,3-thiazolidine-2,4-dione] | 32
19 | O=C1S/C(=C\c2ccc3c(cnn3Cc3ccc(Cl)cc3C(F)(F)F)c2)C(=O)N1CCN1CC[C@H](F)C1 [Compound 2, (5Z)-5-({1-[4-Chloro-2-(trifluoromethyl)benzyl]-1H-indazol-5-yl}methylidene)-3-{2-[(3S)-3-fluoro-pyrrolidin-1-yl]ethyl}-1,3-thiazolidine-2,4-dione] | 185
20 | CN(C)CCN1C(=O)S/C(=C\c2ccc3c(ccn3Cc3ccc(Cl)cc3C(F)(F)F)c2)C1=O [Compound 243, (5Z)-5-[(1-{[4-Chloro-2-(trifluoromethyl)phenyl]methyl}-1H-indol-5-yl)methylidene]-3-[2-(dimethylamino)ethyl]-1,3-thiazolidine-2,4-dione] | 50
21 | O=C1S/C(=C\c2ccc3c(cnn3Cc3ccc(C(F)(F)F)cc3C(F)(F)F)c2)C(=O)N1C[C@H]1CN2CCC[C@H]2CO1 [Compound 208, (5Z)-5-({1-[2,4-Bis(trifluoromethyl)benzyl]-1H-indazol-5-yl}methylidene)-3-[(3R,8aS)-hexahydro-1H-pyrrolo[2,1-c][1,4]oxazin-3-ylmethyl]-1,3-thiazolidine-2,4-dione] | 136
22 | CC(=O)NN1C(=O)S/C(=C\c2ccc3c(cnn3Cc3ccc(Cl)cc3C(F)(F)F)c2)C1=O [Compound 356, N-[(5Z)-5-({1-[4-Chloro-2-(trifluoromethyl)benzyl]-1H-indazol-5-yl}methylidene)-2,4-dioxo-1,3-thiazolidin-3-yl]acetamide] | 14
23 | CC(=O)NCCN1C(=O)S/C(=C\c2ccc3c(cnn3Cc3ccc(Cl)cc3C(F)(F)F)c2)C1=O [Compound 389, N-{2-[(5Z)-5-({1-[4-Chloro-2-(trifluoromethyl)benzyl]-1H-indazol-5-yl}methylidene)-2,4-dioxo-1,3-thiazolidin-3-yl]ethyl}acetamide] | 26
24 | O=C(O)CN1C(=O)S/C(=C\c2ccc3c(ccn3Cc3ccc(F)cc3C(F)(F)F)c2)C1=O [Compound 255, [(5Z)-5-({1-[4-Fluoro-2-(trifluoromethyl)benzyl]-1H-indol-5-yl}methylidene)-2,4-dioxo-1,3-thiazolidin-3-yl]acetic acid] | 1020
25 | O=C1S/C(=C\c2ccc3c(cnn3Cc3ccc(Cl)cc3C(F)(F)F)c2)C(=O)N1CCNS(=O)(=O)C(F)(F)F [Compound 55, N-{2-[(5Z)-5-({1-[4-Chloro-2-(trifluoromethyl)benzyl]-1H-indazol-5-yl}methylidene)-2,4-dioxo-1,3-thiazolidin-3-yl]ethyl}-1,1,1-trifluoromethanesulfonamide] | 101
26 | O=C1S/C(=C\c2ccc3c(cnn3Cc3ccc(Cl)cc3C(F)(F)F)c2)C(=O)N1CCN1CCNCC1 [Compound 163, (5Z)-5-({1-[4-Chloro-2-(trifluoromethyl)benzyl]-1H-indazol-5-yl}methylidene)-3-(2-piperazin-1-ylethyl)-1,3-thiazolidine-2,4-dione] | 38
